In brackets after ≈: the same amount, converted by molar mass. Counter-ions that a name gives are not always drawn.
Experiments:
E. coli, NIHJ = experiment: Minimum Inhibitory Concentration, broth dilution method; type: cell-based; details: Escherichia coli, 10^6 cells/ml, 37° C., 18 hours
Procedure: (§1) |Minimum Inhibitory Concentration (MIC, μg/ml) |(Broth dilution method, inoculated amount: 10^6 cells/ml, incubated |at 37° C. for 18 hours)

Pr. vulgaris, 08601 = experiment: as above; type: cell-based; details: Proteus vulgaris, 10^6 cells/ml, 37° C., 18 hours
Procedure: as §1

Ps. aeruginosa, 32104 = experiment: as above; type: cell-based; details: Pseudomonas aeruginosa, 10^6 cells/ml, 37° C., 18 hours
Procedure: as §1

Ps. aeruginosa, 32121 = experiment: as above; type: cell-based; details: Pseudomonas aeruginosa, 10^6 cells/ml, 37° C., 18 hours
Procedure: as §1

Ps. aeruginosa, 32234 = experiment: as above; type: cell-based; details: Pseudomonas aeruginosa, 10^6 cells/ml, 37° C., 18 hours
Procedure: as §1

Ps. putida, IID 5121 = experiment: as above; type: cell-based; details: Pseudomonas putida, IID5121, 10^6 cells/ml, 37° C., 18 hours
Procedure: as §1

S. aureus, 209P = experiment: as above; type: cell-based; details: Staphylococcus aureus, 10^6 cells/ml, 37° C., 18 hours
Procedure: as §1

Ser. marcescens, 10104 = experiment: as above; type: cell-based; details: Serratia marcescens, 10^6 cells/ml, 37° C., 18 hours
Procedure: as §1

[1] = acute toxicity, i.v. in mice; details: mouse, in vivo, iv
male rats = experiment: repeated intravenous administration to male rats for 10 consecutive days; type: in vivo; details: intravenous, 100, 300 or 1,000 mg/kg
Source text: The compounds of this invention are also characterized by low toxicity and, therefore, have a wide safety margin.

Row | Structure (SMILES) | MIC (E. coli, NIHJ) [µg/mL] | MIC (Pr. vulgaris, 08601) [µg/mL] | MIC (Ps. aeruginosa, 32104) [µg/mL] | MIC (Ps. aeruginosa, 32121) [µg/mL] | MIC (Ps. aeruginosa, 32234) [µg/mL] | MIC (Ps. putida, IID 5121) [µg/mL] | MIC (S. aureus, 209P) [µg/mL] | MIC (Ser. marcescens, 10104) [µg/mL] | LD50 [1] [mg/kg] | body weight, clinical examinations, weight of various organs and histological findings (male rats)
1 | CO/N=C(\C(=O)N[C@@H]1C(=O)N2C(C(=O)O)=C(COC(C)=O)CS[C@H]12)c1csc(N)n1 [Cefotaxime, Sodium 7β-[2-(2-aminothiazol-4-yl)-2-methoxyiminoacetamido]-3-acetoxymethyl-3-cephem-4-carboxylate (syn isomer), reference compound] | < 0.1 | < 0.1 | 25 | 12.5 | 12.5 | 50 | 3.13 | 0.39 |  | 
2 | CO/N=C(\C(=O)N[C@@H]1C(=O)N2C(C(=O)[O-])=C(C[n+]3ccc(-n4ccnc4)cc3)CS[C@H]12)c1csc(N)n1 [Compound A, 7β-[2-(2-Aminothiazol-4-yl)-2-methoxyiminoacetamido]-3-[4-(imidazol-1-yl)-1-pyridinio]methyl-3-cephem-4-carboxylate trihydrochloride (syn isomer)] | < 0.1 | < 0.1 | 1.56 | 1.56 | 1.56 | 1.56 | 0.39 | < 0.1 | 2000 to 4000 | 
3 | CO/N=C(\C(=O)N[C@@H]1C(=O)N2C(C(=O)[O-])=C(C[n+]3ccc(-n4cncn4)cc3)CS[C@H]12)c1csc(N)n1 [Compound B, 7β-[2-(2-Aminothiazol-4-yl)-2-methoxyiminoacetamido]-3-[4-(1,2,4-triazol-1-yl)-1-pyridinio]methyl-3-cephem-4-carboxylate dihydrochloride (syn isomer)] | < 0.1 | < 0.1 | 1.56 | 0.78 | 0.78 | 6.25 | 0.78 | < 0.1 |  | 
4 | CO/N=C(\C(=O)N[C@@H]1C(=O)N2C(C(=O)[O-])=C(C[n+]3ccc(-c4ncc[nH]4)cc3)CS[C@H]12)c1csc(N)n1 [Compound C, 7β-[2-(2-Aminothiazol-4-yl)-2-methoxyiminoacetamido]-3-[4-(imidazol-2-yl)-1-pyridinio]methyl-3-cephem-4-carboxylate trihydrochloride (syn isomer)] | < 0.1 | < 0.1 | 25 | 12.5 | 1.56 | 12.5 | 0.78 | < 0.1 |  | 
5 | CO/N=C(\C(=O)N[C@@H]1C(=O)N2C(C(=O)[O-])=C(C[n+]3ccc(-c4ncco4)cc3)CS[C@H]12)c1csc(N)n1 [Compound D, 7β-[2-(2-Aminothiazol-4-yl)-2-methoxyiminoacetamido]-3-[4-(oxazol-2-yl)-1-pyridinio]methyl-3-cephem-4-carboxylate (syn isomer)] | < 0.1 | < 0.1 | 3.13 (≈ 5.78 µM) | 1.56 (≈ 2.88 µM) | 1.56 (≈ 2.88 µM) | 3.13 (≈ 5.78 µM) | 0.78 (≈ 1.44 µM) | < 0.1 | > 4000 | 
6 | CO/N=C(\C(=O)N[C@@H]1C(=O)N2C(C(=O)[O-])=C(C[n+]3ccc(-c4cnco4)cc3)CS[C@H]12)c1csc(N)n1 [Compound E, 7β-[2-(2-Aminothiazol-4-yl)-2-methoxyiminoacetamido]-3-[4-(oxazol-5-yl)-1-pyridinio]methyl-3-cephem-4-carboxylate (syn isomer)] | < 0.1 | < 0.1 | 1.56 (≈ 2.88 µM) | 0.78 (≈ 1.44 µM) | 0.78 (≈ 1.44 µM) | 3.13 (≈ 5.78 µM) | 0.39 (≈ 0.72 µM) | < 0.1 | > 4000 | no abnormality were observed
7 | CO/N=C(\C(=O)N[C@@H]1C(=O)N2C(C(=O)[O-])=C(C[n+]3ccc(-c4nnco4)cc3)CS[C@H]12)c1csc(N)n1 [Compound F, 7β-[2-(2-Aminothiazol-4-yl)-2-methoxyiminoacetamido]-3-[4-(1,3,4-oxadiazol-2-yl)-1-pyridinio]-methyl-3-cephem-4-carboxylate (syn isomer)] | < 0.1 | 0.1 (≈ 0.184 µM) | 0.78 (≈ 1.44 µM) | 0.78 (≈ 1.44 µM) | 0.78 (≈ 1.44 µM) | 1.56 (≈ 2.88 µM) | 0.39 (≈ 0.719 µM) | < 0.1 | > 4000 | 
8 | CO/N=C(\C(=O)N[C@@H]1C(=O)N2C(C(=O)[O-])=C(C[n+]3cccc(-c4cnco4)c3)CS[C@H]12)c1csc(N)n1 [Compound G, 7β-[2-(2-Aminothiazol-4-yl)-2-methoxyiminoacetamido]-3-[3-(oxazol-5-yl)-1-pyridinio]methyl-3-cephem-4-carboxylate (syn isomer)] | < 0.1 | 0.1 (≈ 0.185 µM) | 3.13 (≈ 5.78 µM) | 1.56 (≈ 2.88 µM) | 1.56 (≈ 2.88 µM) | 12.5 (≈ 23.1 µM) | 0.39 (≈ 0.72 µM) | < 0.1 |  | 
9 | CO/N=C(\C(=O)N[C@@H]1C(=O)N2C(C(=O)[O-])=C(C[n+]3ccc(-c4csnn4)cc3)CS[C@H]12)c1csc(N)n1 [Compound H, 7β-[2-(2-Aminothiazol-4-yl)-2-methoxyiminoacetamido]-3-[4-(1,2,3-thiadiazol-4-yl)-1-pyridinio]methyl-3-cephem-4-carboxylate dihydrochloride (syn isomer)] | < 0.1 | < 0.1 | 1.56 | 1.56 | 0.78 | 12.5 | 0.39 | < 0.1 |  | 

Source: patent US4833242A, “Cephalosporin derivatives and salts thereof” (Daiichi Seiyaku Co., Ltd., priority 1984, dated 1989)
